Data taken from patent US20100190713A1, “USE OF THE PEPTIDE THYMOSIN BETA 4 ALONE OR IN COMBINATION WITH CECROPIN A AS A THERAPEUTIC AGENT” (priority 2007, published 2010).
Where no end group is shown, it is not given here.

What was measured:
[1] = tested on: hepatitis B virus (HBV) ayw strain; assay: HBV experimental assay system, HepG2-2.2.15, secreted HBV DNA by TaqMan PCR; assay type: cell-based; settings: 10 micrograms per ml; HepG2-2.2.15, six days
[2] = tested on: RAW 264.7 (Mouse leukaemic monocyte macrophage cell line) cells; assay: Phagocytosis assay (Fluorescein-labeled Escherichia coli, flow cytometry); assay type: cell-based; settings: 10 micrograms per ml
Experimental: RAW 264.7 (Mouse leukaemic monocyte macrophage cell line) cells were obtained from ATCC and grown in RPMI 1640 medium containing 10% FBS. Cells were incubated in 12×75 mm tubes at 37° C. with test peptides—10 micrograms per ml—for 30 min prior to adding Fluorescein-labeled Escherichia coli bacteria as the agent to be ingested. After the cells were incubated for additional 60 min at 37° C. and allowed to ingest the Fluorescein-labeled Escherichia coli bacteria, cells were fixed with 1% paraformaldehyde. The samples were then analyzed by flow cytometry to determine the amount of phagocytosis as a function of brightness (the greater the phagocytic activity, the more fluorescence in the macrophage population). Data are reported as % positive and the mean fluorescence intensity (MFI) of positively stained cells.

murine spleen cells = assay: Th1/Th2 cytokine profiling assay (Ovalbumin-restimulated spleen cells, CBA kit); assay type: cell-based, Balb/c mice; settings: 10 micrograms per ml, 72 hours
HCMV strain AD169 = assay: HCMV plaque formation assay in MRC-5 cells; assay type: cell-based; settings: 10 micrograms per ml, 7-10 days
Text: Ganciclovir was used as positive control.

[3] = tested on: Primary Human endothelial cells (HUVEC); assay: Endothelial cell migration assay; assay type: cell-based; settings: 10 micrograms per ml, 22 hours
Experimental: Thereafter, designated concentration of testing peptides—10 micrograms per ml—was added in duplicate wells.

HUVEC = assay: Endothelial tube formation assay; assay type: cell-based, human; settings: 10 micrograms per ml, 20 hours
Text: Positive control wes vehicle only.

Substance | inhibition of HBV replication as compared to the virus control infection [1] | induction of phagocytosis as compared to the virus control experiment [2] | production of IFN-γ (decreased by) (murine spleen cells) | production of IL-2 (decreased by) (murine spleen cells) | production of IL-4 (induced by) (murine spleen cells) | production of IL-5 (decreased by) (murine spleen cells) | production of TNF-alpha (change) (murine spleen cells) | inhibition of HCMV plaque formation as compared to the virus control experiment (HCMV strain AD169) | inhibition of the migration of human endothelial cells [3] | inhibition of the tube formation of human endothelial cells (HUVEC)
Ac-Ser-Asp-Lys-Pro-Asp-Met-Ala-Glu-Ile-Glu-Lys-Phe-Asp-Lys-Ser-Lys-Leu-Lys-Lys-Thr-Glu-Thr-Gln-Glu-Lys-Asn-Pro-Leu-Pro-Ser-Lys-Glu-Thr-Ile-Glu-Gln-Glu-Lys-Gln-Ala-Gly-Glu-Ser-OH (SDKPDMAEIEKFDKSKLKKTETQEKNPLPSKETIEQEKQAGES; printed: Ser-Asp-Lys-Pro-Asp-Met-Ala-Glu-Ile-Glu-Lys-Phe-Asp-Lys-Ser-Lys-Leu-Lys-Lys-Thr-Glu-Thr-Gln-Glu-Lys-Asn-Pro-Leu-Pro-Ser-Lys-Glu-Thr-Ile-Glu-Gln-Glu-Lys-Gln-Ala-Gly-Glu-Ser-) [Peptide 1] | no effect | 45.7% | 52.7% | did not significantly change | 31.6% | did not significantly change | did not significantly change |  |  | 
Lys-Trp-Lys-Leu-Phe-Lys-Lys-Ile-Glu-Lys-Val-Gly-Gln-Asn-Ile-Arg-Asp-Gly-Ile-Ile-Lys-Ala-Gly-Pro-Ala-Val-Ala-Val-Val-Gly-Gln-Ala-Thr-Gln-Ile-Ala-Lys-NH2 (KWKLFKKIEKVGQNIRDGIIKAGPAVAVVGQATQIAK-NH2) [Peptide 2] | 10.5% | did not induce phagocytosis | 65.6% | 42.7% | did not significantly change | 37.0% | did not significantly change | 2.1% | 15% | 10%
